Like-named read-outs stand apart in the source and are kept apart here. Marks after values point to notes of the source that are not given here.
Legend:
mouse Notch1-ΔE = experiment: Inhibition of Notch1-ΔE signaling in Hela cells (CBF1-luciferase reporter); conditions: read-out: IC50 for inhibition of Notch1-ΔE signaling
Method: The mouse Notch1-ΔE construct contains the mouse Notch1 signal sequence and the M1727V mutation within the transmembrane domain to suppress internal translation initiation.
Hela cells were maintained in DMEM (GibcoBRL) containing 10% FBS (GibcoBRL), Penicillin/Streptomycin (GibcoBRL) and 2 mM L-glutamine (GibcoBRL). Cells were transiently transfected using TransIT-HelaMONSTER (Mirus) according to the manufacturer's directions. […] The CBF1-luciferase reporter construct consists of 4X copies of the CBF1 binding element upstream of the SV40 promoter (pGL3-Promoter, Promega). […] DNA stocks were diluted in TE buffer (10 mM Tris, 1 mM EDTA, pH 8.0) for transfection. […] Test compounds were initially diluted in a 96 well polypropylene plate in 100% DMSO. […] Diluted compound solutions (10 µL) were added to the cell plate yielding a final 0.1 % DMSO concentration. Cell plates containing compound were incubated overnight at 37°C. Following this overnight incubation, media was gently removed and 25 µL of phosphate buffered saline (with calcium and magnesium) was added to each well. Luc-Screen (Applied Biosystems) reagents A and B were mixed in equal proportions and 50 µL of the mixture was added to each well. The plate was incubated at room temperature for 10 minutes before black backing was attached to the bottom of the plate and the signal was read on a TopCount (Packard). […]

brain Aβ40 = experiment: Rat brain Aβ40 assay (252-TSD ELISA); type: in vivo; conditions: for Day 7 5hr Brain Aβ40 (%Veh): 7 days; for Terminal Brain Aβ40 (%Veh) 5hr: 5 hours after the fourth dose; for Terminal Brain Aβ40 (%Veh) 12hr: 12 hours after the third dose; for Terminal Brain Aβ40 (%Veh) 24hr: 24 hours after the third dose; for brain Aβ40, % of baseline Aβ40 values: 2 to 24 hours post dosing
Method: All procedures were done in concordance with ACUC guidelines. […] Plasma was obtained after centrifugation. […] CSF samples were centrifuged to remove cells or debris prior to dilution at 1:2 in 4% BSA and frozen for subsequent analysis. […] Rat brain (half a hemisphere) was homogenized using a polytron at 4 mL/g in PBS, pH 7.8, 2% CHAPS, complete protease inhibitors (Roche). […] White Microlite II ELISA plates (Thermo Electron) were incubated with 50 µg/mL TSD9S3.2 antibody in PBS for 1 hour at 37°C. Plates were blocked with 200 µL 5% bovine serum albumin (BSA; weight/volume prepared in PBS) for 2 hours at room temperature on a plate shaker and then washed 5 times with 500 µL/well of PBS, 0.05% Tween-20. Clarified brain homogenates were loaded in 6 replicates of 50 µL per well and incubated for 1 hour at room temperature. […] Samples were normalized to a brain homogenate reference placed on each plate.

[1] = Compound plasma levels / AUC in rat studies; type: in vivo; conditions: for concentration at 5 h: female, Sprague-Dawley, rat, plasma, oral
Method: All procedures were done in concordance with ACUC guidelines. […] Plasma was obtained after centrifugation. […] CSF samples were centrifuged to remove cells or debris prior to dilution at 1:2 in 4% BSA and frozen for subsequent analysis.
Animals were euthanized 12 or 24 hours after the third dose or 5 hours after the fourth dose. […] Table 2: Summary of Results from 4-day Rat Studies

CYP3A4 mRNA [2] = conditions: human, 3 days, 20 µM
Method: (§1) [[2-fluoro-4-(1,2,4-oxadiazol-3-yl)phenyl]methyl]amino]-5,5,5-trifluoropentanamide to induce CYP3A4 mRNA was evaluated in vitro using the Fa2N-4 cell line. The Fa2N-4 cell is an immortalized human hepatocyte line that was created using the Simian virus 40 (SV40) T antigen as the immortalizing gene, while retaining basal expression and inducibility of several CYP isoforms, including CYP3A4. Fa2N-4 cells and MFE Support Media F were provided by XenoTech, LLC (Lenexa, Kansas).
(§2) Upon the receipt of the cells, the media were changed and the cells maintained overnight in a humidified, CO2-supplied incubator. After this adaptation period, the cells were examined under a light microscope and a determination was made as to whether the cells were morphologically normal and suitable for use. During the treatment period, the cells were visually inspected on a daily basis; cellular morphology, confluency, and signs of toxicity due to the test article were documented as necessary. […] Rifampicin (10 µM), a prototypical CYP3A4 inducer, was used as the positive control. Fa2N-4 cells were exposed to the test articles for a total of 3 days. The culture medium was replaced daily with fresh medium containing the test articles. After a total of ~72 hours of exposure, medium was aspirated and the cells washed once with warm phosphate buffered saline solution before adding the cell lysis buffer (Qiagen, Valencia, CA).

CYP3A4 mRNA [3] = experiment: Induction of CYP3A4 mRNA in Fa2N-4 cells; conditions: Fa2N-4 hepatocytes, 3 days
Method: as §1, §2

[4] = Metabolic stability in liver microsomes (human); type: in vitro ADME
Method: Mouse, rat, dog, human, and cynomolgus monkey liver microsomes were obtained from BD Gentest (Woburn, MA). The lot numbers were 13 (mouse), 8 (rat), 8 (dog), 19 and 26 (human), and 3 (cynomolgus monkey). […] The reaction, conducted in triplicate, was initiated by the addition of NADPH followed by incubation at 37°C for 50 minutes. Aliquots of samples (0.25 mL) were taken at 0, 5, 10, 20, 30, 40 and 50 minutes and the reaction was quenched by the addition of 3 volumes of acetonitrile. […] The reaction, conducted in triplicate, was initiated by the addition of NADPH followed by incubation at 37 °C for 50 minutes. Aliquots of samples (0.25 mL) were taken at 0, 5, 10, 20, 30, 40 and 50 minutes and the reaction was quenched by the addition of 3 volumes of acetonitrile. […] The reaction, conducted in duplicate, was initiated by the addition of NADPH followed by incubation at 37°C for 40 minutes. Aliquots of samples (0.25 mL) were taken at 0, 5, 10, 15, 20, 30 and 40 minutes and the reaction was quenched by the addition of 3 volumes of acetonitrile. For all studies, samples were analyzed immediately by an LC/MS method.

proximal duodenum = experiment: Histopathology of the proximal duodenum (GI toxicity) in rats; type: in vivo, rat; conditions: for Day 4 GI Tox: 4 days; for Day 7 GI Tox: 7 days; for GI Tox: 4-day
Method: Female Harlan Sprague-Dawley rats (∼200 - 250 g) were dosed daily by oral gavage with a dosing vehicle of 99% PEG-400, 1% Tween-80 at 4 mL/kg in the morning. […] All procedures were done in concordance with ACUC guidelines. […] Plasma was obtained after centrifugation. […] CSF samples were centrifuged to remove cells or debris prior to dilution at 1:2 in 4% BSA and frozen for subsequent analysis.
Following euthanasia by CO2 asphyxiation, approximately 3 cm long sections of the proximal duodenum were removed from the abdomen, rinsed with ice cold Phosphate buffered saline and placed into 10% buffered formalin prior to sectioning. Tissue sections of the duodenum were embedded in liquid paraffin, mounted onto blocks, and cut into triplicate sagittal (cross-luminal) ring sections and stained using the Periodic acid Schiff's base method prior to microscopic evaluation. All animals survived until scheduled necropsy was performed.

[5] = rat, Study No. 2, 100 mg/kg/day

## NC(=O)[C@@H](CCC(F)(F)F)N(Cc1ccc(-c2ncon2)cc1F)S(=O)(=O)c1ccc(Cl)cc1 [(2R)-2-[[(4-chlorophenyl)sulfonyl][[2-fluoro-4-(1,2,4-oxadiazol-3-yl)phenyl]methyl]amino]-5,5,5-trifluoropentanamide]
Mouse Notch1-ΔE
  IC50: 58 ± 23 nM
Brain Aβ40; Rat Study No. 3, 30 mg/kg/day
  Day 7 5hr Brain Aβ40 (%Veh): 13%Veh
Brain Aβ40; Rat Study No. 3, 300 mg/kg/day
  Day 7 5hr Brain Aβ40 (%Veh): 13%Veh
Brain Aβ40; acute rat studies, read-out: ED50 for reduction of brain Aβ40
  ED50: 1 to 10 mg/kg
Brain Aβ40; rat, Study No. 2, 3 mg/kg/day
  Brain % Aβ AUC Reduction: 57%
  Terminal Brain Aβ40 (%Veh) 5hr: 16%Veh
  Terminal Brain Aβ40 (%Veh) 12hr: 34%Veh
  Terminal Brain Aβ40 (%Veh) 24hr: 94%Veh
Brain Aβ40; rat, Study No. 2, 10 mg/kg/day
  Brain % Aβ AUC Reduction: 91%
  Terminal Brain Aβ40 (%Veh) 5hr: 6%Veh
  Terminal Brain Aβ40 (%Veh) 12hr: 4%Veh
  Terminal Brain Aβ40 (%Veh) 24hr: 23%Veh
Brain Aβ40; rat, Study No. 2, 30 mg/kg/day
  Brain % Aβ AUC Reduction: 93%
  Terminal Brain Aβ40 (%Veh) 5hr: 6%Veh
  Terminal Brain Aβ40 (%Veh) 12hr: 4%Veh
  Terminal Brain Aβ40 (%Veh) 24hr: 15%Veh
Brain Aβ40; [5]
  Brain % Aβ AUC Reduction: 96%
  Terminal Brain Aβ40 (%Veh) 5hr: 3%Veh
  Terminal Brain Aβ40 (%Veh) 12hr: 3%Veh
  Terminal Brain Aβ40 (%Veh) 24hr: 7%Veh
Brain Aβ40; rat, Study No.1, 3 mg/kg/day
  Brain % Aβ AUC Reduction: 49%
  Terminal Brain Aβ40 (%Veh) 5hr: 39%Veh
  Terminal Brain Aβ40 (%Veh) 12hr: 35%Veh
  Terminal Brain Aβ40 (%Veh) 24hr: 92%Veh
Brain Aβ40; rat, Study No.1, 10 mg/kg/day
  Brain % Aβ AUC Reduction: 85%
  Terminal Brain Aβ40 (%Veh) 5hr: 12%Veh
  Terminal Brain Aβ40 (%Veh) 12hr: 9%Veh
  Terminal Brain Aβ40 (%Veh) 24hr: 28%Veh
Brain Aβ40; rat, Study No.1, 30 mg/kg/day
  Brain % Aβ AUC Reduction: 90%
  Terminal Brain Aβ40 (%Veh) 5hr: 8%Veh
  Terminal Brain Aβ40 (%Veh) 12hr: 9%Veh
  Terminal Brain Aβ40 (%Veh) 24hr: 13%Veh
Brain Aβ40; rat, single dose 1 mg/kg
  change in brain Aβ40: did not cause a statistically significant change
Brain Aβ40; rat, single dose 10 mg/kg
  brain Aβ40, % of baseline Aβ40 values: less than 25%
Brain Aβ40; rat, single dose 30 mg/kg
  brain Aβ40, % of vehicle control: 16%
Brain Aβ40; rat, single dose 100 mg/kg
  brain Aβ40, % of baseline Aβ40 values: less than 25%
Brain Aβ40; rats, 30 or 300 mg/kg/day, 5 hours post dose
  Brain Aβ40 levels at termination, % of the vehicle control: 13%
Brain Aβ40; subchronic rat studies, doses of 10 mg/kg/day or higher
  Brain Aβ40 AUC reduction: greater than 85%
[1]; 30 mg/kg/day, Rat Study No. 3, 30 mg/kg/day, group terminated Day 4, read-out: Plasma Conc. 5hr post dose Day 1
  concentration at 5 h: 5.9 µM
[1]; 30 mg/kg/day, Rat Study No. 3, 30 mg/kg/day, group terminated Day 4, read-out: Plasma Conc. 5hr post dose Day 4
  concentration at 5 h: 5.6 µM
[1]; 30 mg/kg/day, Rat Study No. 3, 30 mg/kg/day, group terminated Day 7, read-out: Plasma Conc. 5hr post dose Day 1
  concentration at 5 h: 7.2 µM
[1]; 30 mg/kg/day, Rat Study No. 3, 30 mg/kg/day, group terminated Day 7, read-out: Plasma Conc. 5hr post dose Day 7
  concentration at 5 h: 6.2 µM
[1]; 300 mg/kg/day, Rat Study No. 3, 300 mg/kg/day, group terminated Day 4, read-out: Plasma Conc. 5hr post dose Day 1
  concentration at 5 h: 12 µM
[1]; 300 mg/kg/day, Rat Study No. 3, 300 mg/kg/day, group terminated Day 4, read-out: Plasma Conc. 5hr post dose Day 4
  concentration at 5 h: 10 µM
[1]; 300 mg/kg/day, Rat Study No. 3, 300 mg/kg/day, group terminated Day 7, read-out: Plasma Conc. 5hr post dose Day 1
  concentration at 5 h: 14 µM
[1]; 300 mg/kg/day, Rat Study No. 3, 300 mg/kg/day, group terminated Day 7, read-out: Plasma Conc. 5hr post dose Day 7
  concentration at 5 h: 11 µM
[1]; rats, 30 or 300 mg/kg/day
  compound plasma levels 5 hours after the first and fourth dose: similar
CYP3A4 mRNA [2]
  magnitude of induction as % of the induction response caused by rifampicin: 22%
CYP3A4 mRNA [3]; highest concentration tested (20 µM)
  increase in CYP3A4 mRNA expression over the vehicle control: 2.6 fold
CYP3A4 mRNA [3]; lower concentrations (≤ 8.0 µM)
  induction of CYP3A4: ≤ 2.0 fold
[4]; human microsomes, NADPH-fortified, 1 µM
  rate of in vitro metabolism: 32 pmol/min/mg protein
[4]; human, scaled from liver microsome rate
  predicted in vivo (serum) clearance: ~8 mL/min/kg
Proximal duodenum; 100 mg/kg/day, 4-day rat study
  rats with mild lesions in duodenal tissue (histological evaluation): 1/3
Proximal duodenum; Rat Study No. 3, 30 mg/kg/day
  Day 4 GI Tox: NAD
  Day 7 GI Tox: NAD
Proximal duodenum; Rat Study No. 3, 300 mg/kg/day
  Day 4 GI Tox: +^b
  Day 7 GI Tox: NAD
Proximal duodenum; female, Harlan Sprague-Dawley, rat, in vivo
  dose needed to induce GI toxicity: 100 mg/kg/day
Proximal duodenum; rat, Study No. 2, 3 mg/kg/day
  GI Tox: NAD
Proximal duodenum; rat, Study No. 2, 10 mg/kg/day
  GI Tox: NAD
Proximal duodenum; rat, Study No. 2, 30 mg/kg/day
  GI Tox: NAD
Proximal duodenum; [5]
  GI Tox: +^e
Proximal duodenum; rat, Study No.1, 3 mg/kg/day
  GI Tox: NAD
Proximal duodenum; rat, Study No.1, 10 mg/kg/day
  GI Tox: NAD
Proximal duodenum; rat, Study No.1, 30 mg/kg/day
  GI Tox: NAD
Proximal duodenum; rats given ≤ 30 mg/kg
  drug-related duodenal changes: No drug-related duodenal changes
Proximal duodenum; rats, 100 mg/kg/day once daily for 4 days, 1 of 3 animals
  microscopic evaluation of the proximal duodenum: slight goblet cell metaplasia

— EP2408450B1, “ALPHA-(N-SULFONAMIDO)ACETAMIDE COMPOUND AS AN INHIBITOR OF BETA AMYLOID PEPTIDE PRODUCTION” (Bristol-Myers Squibb Company, priority 2009, dated 2010)
